Biological target: T1, GSK-3β (AA 1-420) (Homo sapiens, UniProt P49841)
T1 construct: GSK-3β (AA 1-420)
Assay: Ki determination for the inhibition of GSK-3 (standard coupled enzyme system)
Format: biochemical
Details: 20 μM ATP, 300 μM peptide, 30° C.
Description: Reactions were carried out in a solution containing 100 mM HEPES (pH 7.5), 10 mM MgCl2, 25 mM NaCl, 300 μM NADH, 1 mM DTT and 1.5% DMSO. Final substrate concentrations in the assay were 20 μM ATP (Sigma Chemicals, St Louis, Mo.) and 300 μM peptide (HSSPHQS(PO3H2)EDEEE, American Peptide, Sunnyvale, Calif.). Reactions were carried out at 30° C. and 20 nM GSK-30. Final concentrations of the components of the coupled enzyme system were 2.5 mM phosphoenolpyruvate, 300 μM NADH, 30 μg/ml pyruvate kinase and 10 μg/ml lactate dehydrogenase.
An assay stock buffer solution was prepared containing all of the reagents listed above with the exception of ATP and the test Compound of interest. The assay stock buffer solution (175 μl) was incubated in a 96 well plate with 5 μl of the test compound of interest at final concentrations spanning 0.002 μM to 30 μM at 30° C. for 10 minutes. […] The reaction was initiated by the addition of 20 μl of ATP (final concentration 20 μM). Rates of reaction were obtained using a Molecular Devices Spectramax plate reader (Sunnyvale, Calif.) over 10 minutes at 30° C. The Ki values were determined from the rate data as a function of inhibitor concentration.

T1 sequence (P49841 whole entry, the tested form may be a part): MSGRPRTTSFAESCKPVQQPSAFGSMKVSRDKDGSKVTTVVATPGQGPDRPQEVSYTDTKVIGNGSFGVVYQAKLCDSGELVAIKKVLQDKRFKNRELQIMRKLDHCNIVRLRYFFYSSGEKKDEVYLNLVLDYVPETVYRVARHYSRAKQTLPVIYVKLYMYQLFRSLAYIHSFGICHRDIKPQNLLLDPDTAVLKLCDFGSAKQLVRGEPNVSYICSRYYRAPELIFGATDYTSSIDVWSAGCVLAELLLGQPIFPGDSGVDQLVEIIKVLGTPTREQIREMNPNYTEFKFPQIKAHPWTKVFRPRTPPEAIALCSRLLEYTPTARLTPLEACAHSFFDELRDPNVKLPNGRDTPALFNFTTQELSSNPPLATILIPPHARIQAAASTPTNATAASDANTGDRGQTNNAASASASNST

Ki, < 1000 nM:
CC(C#N)n1c(-c2nonc2N)nc2ccccc21 (racemic) [Compound I-51]
CCCn1c(-c2nonc2N)nc2ccccc21 [Compound I-7, 4-(1-Propyl-1H-benzoimidazol-2-yl)-furazan-3-ylamine]
C=CCn1c(-c2nonc2N)nc2ccccc21 [Compound I-9, 4-(1-Allyl-1H-benzoimidazol-2-yl)-furazan-3-ylamine]
CC(C)n1c(-c2nonc2N)nc2ccccc21 [Compound I-11, 4-(1-Isopropyl-1H-benzoimidazol-2-yl)-furazan-3-ylamine]
N#CCn1c(-c2nonc2N)nc2ccccc21 [Compound I-13, [2-(4-Amino-furazan-3-yl)-benzoimidazol-1-yl]-acetonitrile]
Nc1nonc1-c1nc2ccccc2n1CC(=O)Nc1ccc(F)c(F)c1 [Compound I-19, 2-[2-(4-Amino-furazan-3-yl)-benzoimidazol-1-yl]-N-(3,4-difluoro-phenyl)-acetamide]
Nc1nonc1-c1nc2ccccc2n1CC1CC1 [Compound I-32, 1-Cyclopropylmethyl-2-[(4-amino)-1,2,5-oxadiazol-3-yl]benzimidazole]
Nc1nonc1-c1nc2ccccc2n1CC(F)(F)F [Compound I-37, 1-(2,2,2-Trifluoro)ethyl-2-[(4-amino)-1,2,5-oxadiazol-3-yl]benzimidazole]
COc1ccc2c(c1)nc(-c1nonc1N)n2CC#N [Compound I-47, 1-Cyanomethyl-2-[(4-amino)-1,2,5-oxadiazol-3-yl]-5/6-methoxy benzimidazole]
Nc1nonc1-c1nc2ccccc2n1-c1ccccc1 [Compound I-50, 1-Phenyl-2-[(4-amino)-1,2,5-oxadiazol-3-yl]benzimidazole]
CC(C)CCn1c(-c2nonc2N)nc2ccccc21 [Compound I-54, 1-(3-Methyl)butyl-2-[(4-amino)-1,2,5-oxadiazol-3-yl]benzimidazole]
CCn1c(-c2nonc2N)nc2ccccc21 [Compound I-55, 4-(1-Ethyl-1H-benzoimidazol-2-yl)-furazan-3-ylamine]
N#CCn1c(-c2nonc2N)nc2c([N+](=O)[O-])cccc21 [Compound I-56, 1-Cyanomethyl-2-[(4-amino)-1,2,5-oxadiazol-3-yl]-4-nitro benzimidazole]
N#CCOc1cccc2c1nc(-c1nonc1N)n2CC#N [Compound I-58, 1-Cyanomethyl-2-[(4-amino)-1,2,5-oxadiazol-3-yl]-4/7-cyanomethoxy benzimidazole]
Nc1cccnc1-c1nc2ccccc2[nH]1 [Compound I-87]
CNc1nccnc1-c1nc2ccccc2n1CC#N [Compound I-90, 3-(1-Cyanomethylbenzimidazol-2-yl)-pyrazin-2-yl methylamine]
CC(C)Cn1c(-c2nc(Cl)cnc2N)nc2ccccc21 [Compound I-96]
CC(C(N)=O)n1c(-c2nonc2N)nc2ccccc21 (stereo not shown) [Compound I-109]
CC(C)Cn1c(-c2nonc2N)nc2cc(O)ccc21 [Compound I-129]

From patent US20040034037A1, “Heteroaryl compounds useful as inhibitors of GSK-3” (priority 2002, published 2004)
